Experimental data reported in US5023376A, “Reduction of nitrosamine formation” (Interox America, priority 1989, dated 1991).
Entries after “also recorded” stand apart in the source; their conditions may differ. Counter-ions that a name gives are not always drawn. Like-named read-outs stand apart in the source and are kept apart here.

What was measured:
[1] = oxidation of dodecyldimethylamine with hydrogen peroxide under transition metal stress conditions in presence of phosphonate or other chelating agent (residual peroxide/amine, amine oxide yield, amine conversion)
Excerpt: The residual amounts of peroxide and amine are the measured amounts in the mixture, the A O yield indicated is the weight percentage of measured amine oxide based on the amount of amine employed, assuming a purity of 97.5% and the amine conversion is based on the weight of the amine material (as 100%) that has been consumed.

[2] = residual nitrosamine content measured by gas chromatography - thermal energy analyzer; conditions: for Residual Nitrosamines: Table 2, sum of dimethylnitrosamine and dodecylmethylnitrosamine, mole ratio about 4.3:1; for Residual Nitrosamine: Table 3
Excerpt: In addition to determining the effect of the phosphonates upon the extent of the reaction, the residual content of nitrosamines was independently measured by gas chromatography - thermal energy analyzer, and Table 2 below gives the sum of the two principal nitrosamines, namely dimethylnitrosamine and dodecylmethylnitrosamine.

[3] = Table 1, amine oxide, based on amine employed, assuming purity of 97.5%, stress conditions, mole ratio about 4.3:1
[4] = Table 1, mole ratio ATMP:metals 7.3:1 (C 5)
[5] = Table 1, stress conditions, 2.5 ppm metals, […]
[6] = Table 1, weight of amine consumed, stress conditions, mole ratio about 4.3:1
[7] = Table 3, chelating agent:metals mole ratio 4.3:1
[8] = chelating agent:metals mole ratio 4.3:1
[9] = Table 1, stress conditions, 2.5 ppm metals, phosphonate:metal mole ratio about 4.3:1
[10] = Table 1, phosphonate pre-mixed with the hydrogen peroxide solution (Ex 3)
[11] = Table 3, lower mole ratio 2.15:1 (Ex 10)

SMILES	A O yield [1, 3] [wt %]	Amine Conversion [1, 6] [wt %]	Residual Nitrosamines [2] [ppb]	A O yield [1, 7] [wt %]	Amine Conversion [1, 7] [wt %]	Peroxide Consumed [1, 7] [wt %]	Residual Nitrosamine [2, 8] [ppb]	Residual Amine [1, 9] [wt %]	Residual Peroxide [1, 9] [wt %]	other results
O=P(O)(O)CN(CP(=O)(O)O)CP(=O)(O)O [ATMP, aminotris(methylenephosphonic acid) sodium salt]	38.3	40.5	11036							A O yield [1, 4]: 63.1 wt %; Amine Conversion [1, 4]: 65.7 wt %; Residual Amine [1, 4]: 9.9 wt %; Residual Peroxide [1, 4]: 0.02 wt %; Residual Amine [1, 5]: 17.3 wt %; Residual Peroxide [1, 5]: 0.02 wt %; effectiveness in the amine oxidation process (in words) ([1]; stress conditions, listed as C4, sodium salt): less amine conversion and a lower yield of amine oxide than the corresponding reaction to which no phosphonates had been introduced; effectiveness in the amine oxidation process (in words) ([1]; stress conditions, listed as C5, sodium salt): rather better than C4, but still very markedly worse than the results for Ex2/3, Ex6 or Ex7; effectiveness in the amine oxidation process (in words) ([1]; stress conditions, sodium salt): did not perform with similar effectiveness; effect on residual nitrosamine content (in words) ([2]; text conclusion from Table 2): significantly worse
O=C(O)CN(CC(=O)O)C1CCCCC1N(CC(=O)O)CC(=O)O (stereo not shown) [CDTA, cyclohexane-1,2-diaminotetra(acetic acid), sodium salt]				34.4	68.1	99.9	3279			
O=P(O)(O)CN(CP(=O)(O)O)C1CCCCC1N(CP(=O)(O)O)CP(=O)(O)O (stereo not shown) [CDTMP, cyclohexanediaminotetra(methylenephosphonic acid), sodium salt]	97.7	97.3	1950					0.8	0.67	effectiveness in the amine oxidation process (in words) ([1]; stress conditions): very great amelioration of the problem
O=C(O)CN(CCN(CC(=O)O)CC(=O)O)CCN(CC(=O)O)CC(=O)O [DTPA, diethylenetriaminepenta(acetic acid), sodium salt]				83.9	83.2	99.6	7017			
O=P(O)(O)CN(CCN(CP(=O)(O)O)CP(=O)(O)O)CCN(CP(=O)(O)O)CP(=O)(O)O [DTPMP, diethylenetriaminepenta(methylenephosphonic acid), sodium salt]	96.2	94.4	251					1.6	0.72	A O yield [1, 10]: 97.2 wt %; Amine Conversion [1, 10]: 96.7 wt %; Residual Amine [1, 10]: 0.9 wt %; Residual Peroxide [1, 10]: 0.66 wt %; A O yield [1, 11]: 98.8 wt %; Amine Conversion [1, 11]: 98.3 wt %; Peroxide Consumed [1, 11]: 83.1 wt %; effectiveness in the amine oxidation process (in words) ([1]; stress conditions, sodium salt): very great amelioration of the problem; also recorded: equally as good, or possibly even slightly better when introduced via the hydrogen peroxide solution; Residual Nitrosamine ([2]; lower mole ratio 2.15:1 (Ex 10)): 1031 ppb
O=P(O)(O)CN(CCN(CP(=O)(O)O)CP(=O)(O)O)CCN(CP(=O)(O)O)CP(=O)(O)O [DTPMPA]				96.5	96.1	86.4	1591			
O=C([O-])CN(CCN(CC(=O)[O-])CC(=O)[O-])CC(=O)[O-].[Na+].[Na+].[Na+].[Na+] [EDTA, ethylenediaminetetra(acetic acid), sodium salt]							3421			A O yield [1]: 35.3 wt %; Amine Conversion [1]: 54.8 wt %; Peroxide Consumed [1]: 99.9 wt %
O=P(O)(O)CN1CCN(CP(=O)(O)O)CCN(CP(=O)(O)O)CCN(CP(=O)(O)O)CCN(CP(=O)(O)O)CCN(CP(=O)(O)O)CC1 [HCMP, hexacyclenehexa(methylenephosphonic acid)]	97.1	96.8	1056					0.9	0.76	effectiveness in the amine oxidation process (in words) ([1]; stress conditions): very great amelioration of the problem
O=P(O)(O)CN(CCCCCCN(CP(=O)(O)O)CP(=O)(O)O)CP(=O)(O)O [HDTMP, hexamethylenediaminetetra(methylene phosphonic acid)]				37.0	58.7	99.6	3834			effectiveness in the amine oxidation process (in words) ([1]; stress conditions, listed as C11): singularly ineffective; effectiveness in the amine oxidation process (in words) ([1]; stress conditions, listed as hexamethylenediaminotetra(methylenephosphonic acid)): significantly inferior
CC(O)(P(=O)(O)O)P(=O)(O)O [HEDP, hydroxyethylidene-1,1-diphosphonic acid]				32.1	48.2	99.6	10024			effectiveness in the amine oxidation process (in words) ([1]; stress conditions, listed as (hydroxyethylidene)diphosphonic acid): significantly inferior; effectiveness in the amine oxidation process (in words) ([1]; stress conditions, listed as C12): ineffective
